{
  "source": "patent US20160010059A1",
  "about": "“EXPANSION OF HEMATOPOIETIC PROGENITOR CELLS BY HISTONE METHYLTRANSFERASE G9a INHIBITION” (The Regents of the University of California, priority 2013, published 2016)",
  "key": {"histone acetylation": {"system": "histone acetylation", "assay": "Histone western blot after HDAC inhibitor treatment (assay sensitivity control)", "format": "cell-based, mouse", "settings": "37° C. for 2 hours", "description": "(§1) For western blot, FACS sorted cells were lysed in RIPA buffer, and run in a 15% gradient SDS-page (BIO-RAD). Histone modifications were assessed with antibodies against H3k27me3 (07-449 Millipore), H3 Acetylated (06-599), H4K16Ac (07-329), H3k4me3 (07-473), total H3 (06-755), H3k36me3 (Ab9050 abcam), H3k9me2 (Ab1220), H3k9me3 (Ab8898). Cells were incubated with the HDAC inhibitor trichostatin A (Cell signaling) at 37° C. for 2 hours to induce histone acetylation. For immunostaining cells were sorted onto poly-lysine coated slides, fixed with 2% PFA, permeabilized with 0.1% triton-x in PBS, and stained with H3k9me3 (Ab8898), Lamin B (sc-6217) antibodies followed by an Alexa488-Donkey-α-goat and a Alexa594-goat-α-rabbit secondary antibody (Invitrogen) plus DAPI. Images were acquired using a PerkinElmer Volocity spinning disk confocal microscope. Image analysis was done using ImageJ software (Schneider et al., 2012)."}, "[1]": {"system": "lethally irradiated C57BL/6 mice", "assay": "Transplantation of cultured HSCs into lethally irradiated mice (chimerism)", "format": "in vivo, mouse"}, "KLS cells": {"system": "KLS cells", "assay": "Replating of cultured cells into liquid culture with SCF and TPO (proliferation capacity)", "format": "cell-based, mouse"}, "HSC-related genes": {"system": "HSC-related genes", "assay": "Global gene expression analysis (RNA-seq) of KLS fractions after 5 days in vitro culture", "format": "cell-based, mouse", "settings": "5 days culture"}, "[2]": {"system": "H3k9me2 on putative G9a targets", "assay": "ChIP-qPCR of histone marks on putative G9a targets identified by RNA-seq", "format": "cell-based, mouse", "settings": "n=3"}, "H3K9me2 / H3K9me3": {"system": "H3K9me2 / H3K9me3", "assay": "Histone western blot and immunofluorescence in UNC0638 treated cells", "format": "cell-based, mouse", "description": "as §1"}},
  "note": "Entries after “also recorded” stand apart in the source; their conditions may differ.",
  "data": [
    {"compound": "CC(/C=C/C(=O)NO)=C\\[C@@H](C)C(=O)c1ccc(N(C)C)cc1", "note": "[trichostatin A]", "values": [
      {"measurement": "global levels of histone acetylation", "setting": "histone acetylation", "result": "significantly increased the global levels of histone acetylation"}
    ]},
    {"compound": "COc1cc2c(NC3CCN(C(C)C)CC3)nc(C3CCCCC3)nc2cc1OCCCN1CCCC1", "note": "[UNC0638]", "values": [
      {"measurement": "lineage readout after transplantation", "setting": "[1]; 24 hrs or 5 days culture", "result": "no defects in lineage potential; also recorded: readout in all 5 lineages"},
      {"measurement": "Percentage of chimerism / engraftment", "setting": "[1]; cells cultured for 24 hrs with UNC0638 before transplantation, n=10 per group", "result": "minor increase in engraftment; also recorded: positive trend in higher chimerism for UNC0638 treated cells in all myeloid and lymphoid lineages, though not significant"},
      {"measurement": "Percentage of chimerism / engraftment", "setting": "[1]; cells cultured for 5 days on AFT024 feeder layers with UNC0638 before transplantation, n=10", "result": "modest increase in the levels of engraftment; also recorded: significantly higher % of GM and B chimerism"},
      {"measurement": "proliferation capacity", "setting": "KLS cells; after day 5 of in vitro culture", "result": "increase proliferation capacity after day 5"},
      {"measurement": "proliferation capacity", "setting": "KLS cells; replating equal amounts of KLS after 5 days culture", "result": "equal proliferation capacity as the KLS control cells"},
      {"measurement": "number of cells", "setting": "KLS cells; replating equal amounts of Kit+ cells, 10 days in culture", "result": "significant higher number of cells after 10 days in culture"},
      {"measurement": "downregulated genes", "setting": "HSC-related genes; Egr1, Ndn, Robo4", "result": "significantly downregulation of some genes"},
      {"measurement": "upregulated genes", "setting": "HSC-related genes; vs DMSO control, DESEQ padj<0.01, e.g. Sox6, Itga2b, Gata1, Fgf3", "result": "significant number of HSC-related genes upregulated; also recorded: significant number of upregulated HSC-related genes"},
      {"measurement": "levels of H3k9me2 on putative G9a targets", "setting": "[2]", "result": "significantly lower amount of H3K9me2 at their promoter; also recorded: significantly reduced levels of H3k9me2"},
      {"measurement": "levels of H3k9me3 on putative G9a targets", "setting": "[2]", "result": "trend to lower amount of H3K9me3; also recorded: mild trend toward H3k9me3 reduction"},
      {"measurement": "levels of active mark H3K4me3 on putative G9a targets", "setting": "[2]", "result": "no differences for the active mark H3K4me3"},
      {"measurement": "amount of H3K9me2 by western blot", "setting": "H3K9me2 / H3K9me3; UNC0638 treated cells", "result": "effect is highly enriched in the KLS fraction"},
      {"measurement": "distribution of H3K9me3 by immunofluorescence", "setting": "H3K9me2 / H3K9me3; compared to the DMSO treated control", "result": "more disperse distribution of this histone mark"}
    ]}
  ]
}
